Assay results reported in ChEMBL document CHEMBL1817658, “Synthesis and biological activity of optically active phenylbutenoid dimers” (J Nat Prod, 2011).

Molecular target: ATP-dependent translocase ABCB1 (Homo sapiens, UniProt P08183)
Assay: Inhibition of P-gp in human MCF7/ADR cells assessed as potentiation of daunomycin-induced cytotoxicity at 50 microM incubated for 2 hrs by SRB assay
Assay type: cell-based
Details: nci/adr-res; call rule not given here

Sequence of ATP-dependent translocase ABCB1 (P08183 whole entry): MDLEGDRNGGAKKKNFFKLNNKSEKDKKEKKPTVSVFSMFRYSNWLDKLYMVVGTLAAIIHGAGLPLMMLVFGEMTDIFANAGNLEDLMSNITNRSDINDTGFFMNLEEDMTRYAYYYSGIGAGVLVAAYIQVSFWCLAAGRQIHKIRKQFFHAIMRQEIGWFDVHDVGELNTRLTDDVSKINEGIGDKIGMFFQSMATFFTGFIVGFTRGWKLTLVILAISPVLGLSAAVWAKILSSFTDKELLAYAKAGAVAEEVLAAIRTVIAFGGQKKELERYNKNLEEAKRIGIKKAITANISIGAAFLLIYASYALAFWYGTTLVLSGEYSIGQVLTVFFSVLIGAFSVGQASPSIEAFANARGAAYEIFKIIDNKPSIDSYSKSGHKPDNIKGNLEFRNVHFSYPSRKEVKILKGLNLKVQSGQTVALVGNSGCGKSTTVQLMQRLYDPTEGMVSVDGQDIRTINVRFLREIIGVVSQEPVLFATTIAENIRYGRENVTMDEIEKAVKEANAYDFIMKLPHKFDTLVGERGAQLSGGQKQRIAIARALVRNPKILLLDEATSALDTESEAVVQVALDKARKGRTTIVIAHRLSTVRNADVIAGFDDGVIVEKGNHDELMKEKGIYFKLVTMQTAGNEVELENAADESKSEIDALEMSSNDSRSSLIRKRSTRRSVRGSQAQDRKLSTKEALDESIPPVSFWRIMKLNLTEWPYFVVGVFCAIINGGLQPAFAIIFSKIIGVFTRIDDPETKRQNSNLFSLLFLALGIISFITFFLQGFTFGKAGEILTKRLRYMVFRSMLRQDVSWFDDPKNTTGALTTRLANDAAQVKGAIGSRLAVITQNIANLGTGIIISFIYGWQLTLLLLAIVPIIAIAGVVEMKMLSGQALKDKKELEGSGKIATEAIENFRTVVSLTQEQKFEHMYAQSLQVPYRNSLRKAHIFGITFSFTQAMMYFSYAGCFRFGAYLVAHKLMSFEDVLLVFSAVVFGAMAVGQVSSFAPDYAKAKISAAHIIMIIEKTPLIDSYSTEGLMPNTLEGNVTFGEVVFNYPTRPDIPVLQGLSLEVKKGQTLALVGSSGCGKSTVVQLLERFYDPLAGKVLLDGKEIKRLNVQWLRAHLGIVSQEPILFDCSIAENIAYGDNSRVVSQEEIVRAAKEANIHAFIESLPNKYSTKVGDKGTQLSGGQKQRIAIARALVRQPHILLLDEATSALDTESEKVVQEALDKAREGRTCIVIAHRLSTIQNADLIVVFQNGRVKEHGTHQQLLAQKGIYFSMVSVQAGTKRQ

SMILES | inhibition (INH)
COc1ccc(/C=C/[C@H]2CCC=C[C@@H]2c2ccc(OC)c(OC)c2)cc1OC | Active
COc1ccc(/C=C\[C@H]2CCC=C[C@@H]2c2ccc(OC)c(OC)c2)cc1OC | Active
COc1ccc(/C=C/[C@@H]2CCC=C[C@H]2c2ccc(OC)c(OC)c2)cc1OC | Active
